Measured values: ChEMBL document CHEMBL5236596, “Discovery and Optimization of N-Acyl-6-sulfonamide-tetrahydroquinoline Derivatives as Novel Non-Steroidal Selective Glucocorticoid Receptor Modulators” (J Med Chem, 2022)

Tests used:
[1] = Inhibition of LPS-induced IL-6 secretion in mouse primary peritoneal macrophages by ELISA; format: functional, cell-based; details: Peritoneal macrophage
[2] = Inhibition of LPS-induced TNF-alpha secretion in mouse primary peritoneal macrophages by ELISA; format: functional, cell-based; details: Peritoneal macrophage
[3] = biological target: T1, Glucocorticoid receptor (Homo sapiens, UniProt P04150); experiment: Binding affinity to glucocorticoid receptor (unknown origin) by Lanthascreen TR-FRET competition binding assay
T1 sequence (P04150 whole entry): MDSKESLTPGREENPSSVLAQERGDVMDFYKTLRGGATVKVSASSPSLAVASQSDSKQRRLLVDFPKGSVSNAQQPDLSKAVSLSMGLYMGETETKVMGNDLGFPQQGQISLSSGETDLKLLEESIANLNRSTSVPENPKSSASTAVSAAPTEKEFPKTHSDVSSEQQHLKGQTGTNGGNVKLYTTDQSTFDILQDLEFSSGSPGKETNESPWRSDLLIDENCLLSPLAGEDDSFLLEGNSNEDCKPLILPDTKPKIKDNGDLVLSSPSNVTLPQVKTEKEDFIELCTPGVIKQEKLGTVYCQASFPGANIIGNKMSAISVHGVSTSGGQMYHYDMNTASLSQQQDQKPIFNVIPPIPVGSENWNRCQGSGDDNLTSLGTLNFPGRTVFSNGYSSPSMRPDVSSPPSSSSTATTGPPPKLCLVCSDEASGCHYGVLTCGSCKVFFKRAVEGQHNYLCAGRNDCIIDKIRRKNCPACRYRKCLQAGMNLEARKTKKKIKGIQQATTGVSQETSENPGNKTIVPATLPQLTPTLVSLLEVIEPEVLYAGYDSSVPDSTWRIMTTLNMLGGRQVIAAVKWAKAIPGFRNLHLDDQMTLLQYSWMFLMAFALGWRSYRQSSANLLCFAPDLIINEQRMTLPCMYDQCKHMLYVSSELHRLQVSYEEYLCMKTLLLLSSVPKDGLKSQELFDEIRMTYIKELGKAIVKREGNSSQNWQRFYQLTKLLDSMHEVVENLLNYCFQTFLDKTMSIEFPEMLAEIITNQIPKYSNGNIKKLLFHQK

[4] = biological target: T1, Glucocorticoid receptor; experiment: Modulation of glucocorticoid receptor (unknown origin) transfected in human HeLa cells assessed as transrepression by measuring inhibition of TNF-alpha induced NF-kappaB signalling incubated for 18 hrs by dual-luciferase reporter based assay; format: cell-based
[5] = biological target: T1, Glucocorticoid receptor; experiment: Modulation of glucocorticoid receptor (unknown origin) transfected in human HeLa cells assessed as transrepression by measuring inhibition of PMA-induced AP-1 signalling incubated for 18 hrs by dual-luciferase reporter based assay; format: cell-based
[6] = biological target: T1, Glucocorticoid receptor; experiment: Antagonist activity at glucocorticoid receptor (unknown origin) transfected in human HeLa cells assessed as inhibition of dexamethasone-induced transactivation of receptor incubated for 18 hrs by firefly luciferase assay; format: cell-based
[7] = tested on: NIH3T3; experiment: Cytotoxicity against mouse 3T3 cells assessed as inhibition of cell growth; format: toxicity, cell-based
[8] = tested on: GES1; experiment: Cytotoxicity against human GES1 cells assessed as inhibition of cell growth; format: toxicity, cell-based
[9] = Cmax in BALB/c mouse at 10 mg/kg, po; format: ADME, organism-based; set-up: dose 10 mg/kg, route po; details: in vivo
[10] = Tmax in BALB/c mouse at 10 mg/kg, po; format: ADME, organism-based; details: in vivo
[11] = Half life in BALB/c mouse at 10 mg/kg, po; format: ADME, organism-based; details: in vivo
[12] = Oral bioavailability in BALB/c mouse at 10 mg/kg; format: ADME, organism-based; details: in vivo
[13] = Toxicity in DNCB-induced BALB/c atopic dermatitis mouse model assessed as reduction in body weight at 5 to 20 mg/kg, po administered via gavage for 21 consecutive days starting from day 4 post DNCB stimulation; format: organism-based; details: in vivo, 504 h, dose 5-20 mg/kg, time 21 day
[14] = Toxicity in DNCB-induced BALB/c atopic dermatitis mouse model assessed as body weight gain at 1 mg/kg, po administered via gavage for 21 consecutive days starting from day 4 post DNCB stimulation; format: organism-based; details: in vivo, 504 h, time 21 day
[15] = Cytotoxicity against human Chang liver cells assessed as inhibition of cell growth; format: toxicity, cell-based

IC50 [3] [nM]	IC50 [4] [nM]	IC50 [5] [nM]	IC50 [6] [nM]	Structure (SMILES)	also measured
–	–	–	–	COc1ccc(C(=O)/C=C/c2cccc(OC)c2OC)cc1	IC50 [1]: 10000 nM; IC50 [2]: 10000 nM
3190	470	2710	12100	COc1cc(C)c(Cl)cc1S(=O)(=O)Nc1ccc2c(c1)CCCN2C(C)=O	–
3430	450	1320	–	COc1ccc(C(=O)N2CCCc3cc(NS(=O)(=O)c4cc(Cl)c(C)cc4OC)ccc32)cc1OC	–
> 50000	100	> 10000	–	CCCCc1ccc(C(=O)N2CCCc3cc(NS(=O)(=O)c4cc(Cl)c(C)cc4OC)ccc32)cc1	–
> 50000	710	2720	–	COC(=O)c1ccc(C(=O)N2CCCc3cc(NS(=O)(=O)c4cc(Cl)c(C)cc4OC)ccc32)cc1	–
1910	9	130	19000	COc1cc(C)c(Cl)cc1S(=O)(=O)Nc1ccc2c(c1)CCCN2C(=O)c1ccccc1	IC50 [1]: 6900 nM; IC50 [2]: 7740 nM; Activity [7]: Non-Toxic; Activity [8]: Non-Toxic; Cmax [9]: 394 ng/mL; Tmax [10]: 5 min; half-life [11]: 30 min; bioavailability [12]: 19.8%; Activity [13]: Non-Toxic
6960	350	2730	14200	COc1cc(C)c(Cl)cc1S(=O)(=O)Nc1ccc2c(c1)CCCN2C(=O)c1ccc(F)cc1	–
> 10000	> 10000	6530	> 10000	O=C(c1ccco1)N1CCCc2cc(NS(=O)(=O)CCc3ccccc3)ccc21	–
2750	50	530	27300	COc1cc(C)c(Cl)cc1S(=O)(=O)Nc1ccc2c(c1)CCCN2C(=O)N(C)C	–
–	–	–	–	C[C@@H]1C[C@H]2[C@@H]3CCC4=CC(=O)C=C[C@]4(C)[C@@]3(F)[C@@H](O)C[C@]2(C)[C@@]1(O)C(=O)CO [DEXAMETHASONE]	Activity [8]: Non-Toxic; Activity [14]: Non-Toxic
–	–	–	–	CC(C)[C@H](NC(=O)C(C)(F)F)[C@H](Oc1ccc2c(cnn2-c2ccc(=O)n(C)c2)c1)c1ccccc1 [MIZACORAT]	Activity [7]: Toxic; Activity [8]: Toxic; Activity [15]: Toxic
